# Test system: human PBMCs
# Test: Human PBMC cytokine response assay (IFN-γ and IFN-α in cell-free medium by ELISA), with or without cPLGA
# Format: cell-based
# [1] = Donor 5, 20 μg/ml (mixtures: 20 μg/ml total), 24 h
# [2] = Donor 6, 20 μg/ml (mixtures: 20 μg/ml total), 24 h
substance,measurement,setting,value
"5′-TGACTGTGAACGTTCGAGATGA-3′ (SEQ ID NO: 2) [Compound P-6, reference compound]",IFN-α (pg/ml) Donor 1,"Donor 1, 20 μg/ml, 24 h",401 pg/mL
same,IFN-γ (pg/ml) Donor 1,"Donor 1, 20 μg/ml, 24 h",2180 pg/mL
same,IFN-α (pg/ml) Donor 2,"Donor 2, 20 μg/ml, 24 h",39 pg/mL
same,IFN-γ (pg/ml) Donor 2,"Donor 2, 20 μg/ml, 24 h",669 pg/mL
same,IFN-α (pg/ml) Donor 3,"Donor 3, 20 μg/ml, 24 h",28 pg/mL
same,IFN-γ (pg/ml) Donor 3,"Donor 3, 20 μg/ml, 24 h",99 pg/mL
same,IFN-α (pg/ml) Donor 4,"Donor 4, 20 μg/ml, 24 h",106 pg/mL
same,IFN-γ (pg/ml) Donor 4,"Donor 4, 20 μg/ml, 24 h",223 pg/mL
same,IFN-α (pg/ml) Donor 5,[1],54 pg/mL
same,IFN-γ (pg/ml) Donor 5,[1],73 pg/mL
same,IFN-α (pg/ml) Donor 6,[2],482 pg/mL
same,IFN-γ (pg/ml) Donor 6,[2],1170 pg/mL
same,IFN-α (pg/ml) Donor 7,"Donor 7, 20 μg/ml, 24 h",4 pg/mL
same,IFN-γ (pg/ml) Donor 7,"Donor 7, 20 μg/ml, 24 h",15 pg/mL
same,IFN-α (pg/ml) Donor 8,"Donor 8, 20 μg/ml, 24 h",59 pg/mL
same,IFN-γ (pg/ml) Donor 8,"Donor 8, 20 μg/ml, 24 h",367 pg/mL
same,IFN-α Donor 9,"Donor 9, 20 μg/ml, 24 h",12
same,IFN-γ Donor 9,"Donor 9, 20 μg/ml, 24 h",66
same,IFN-α Donor 10,"Donor 10, 20 μg/ml, 24 h",28
same,IFN-γ Donor 10,"Donor 10, 20 μg/ml, 24 h",20
same,IFN-α Donor 11,"Donor 11, 20 μg/ml, 24 h",12
same,IFN-γ Donor 11,"Donor 11, 20 μg/ml, 24 h",72
same,IFN-α Donor 12,"Donor 12, 20 μg/ml, 24 h",12
same,IFN-γ Donor 12,"Donor 12, 20 μg/ml, 24 h",23
same,IFN-α,"Example 58, 0.8 ug/ml, donor 1",52 pg/mL
same,IFN-α,"Example 58, 0.8 ug/ml, donor 2",52 pg/mL
same,IFN-α,"Example 58, 0.8 ug/ml, donor 3",52 pg/mL
same,IFN-α,"Example 58, 0.8 ug/ml, donor 4",52 pg/mL
same,IFN-α mean,"Example 58, 0.8 ug/ml, mean of four individuals",52 pg/mL
same,IFN-α,"Example 58, 4 ug/ml, donor 1",115 pg/mL
same,IFN-α,"Example 58, 4 ug/ml, donor 2",52 pg/mL
same,IFN-α,"Example 58, 4 ug/ml, donor 3",52 pg/mL
same,IFN-α,"Example 58, 4 ug/ml, donor 4",65 pg/mL
same,IFN-α mean,"Example 58, 4 ug/ml, mean of four individuals",71 pg/mL
same,IFN-α,"Example 58, 20 ug/ml, donor 1",116 pg/mL
same,IFN-α,"Example 58, 20 ug/ml, donor 2",64 pg/mL
same,IFN-α,"Example 58, 20 ug/ml, donor 3",52 pg/mL
same,IFN-α,"Example 58, 20 ug/ml, donor 4",52 pg/mL
same,IFN-α mean,"Example 58, 20 ug/ml, mean of four individuals",71 pg/mL
same,IFN-α,"Example 59, 0.8 ug/ml, donor 48",102 pg/mL
same,IFN-α,"Example 59, 0.8 ug/ml, donor 177",102 pg/mL
same,IFN-α,"Example 59, 0.8 ug/ml, donor 272",102 pg/mL
same,IFN-α,"Example 59, 0.8 ug/ml, donor 273",102 pg/mL
same,IFN-α mean,"Example 59, 0.8 ug/ml, mean of four donors",102 pg/mL
same,IFN-α,"Example 59, 4 ug/ml, donor 48",102 pg/mL
same,IFN-α,"Example 59, 4 ug/ml, donor 177",245 pg/mL
same,IFN-α,"Example 59, 4 ug/ml, donor 272",102 pg/mL
same,IFN-α,"Example 59, 4 ug/ml, donor 273",102 pg/mL
same,IFN-α mean,"Example 59, 4 ug/ml, mean of four donors",138 pg/mL
same,IFN-α,"Example 59, 20 ug/ml, donor 48",256 pg/mL
same,IFN-α,"Example 59, 20 ug/ml, donor 177",323 pg/mL
same,IFN-α,"Example 59, 20 ug/ml, donor 272",102 pg/mL
same,IFN-α,"Example 59, 20 ug/ml, donor 273",102 pg/mL
same,IFN-α mean,"Example 59, 20 ug/ml, mean of four donors",196 pg/mL
same,IFN-α,"Table 9, donor 28089",0 pg/mL
same,IFN-γ,"Table 9, donor 28089",84 pg/mL
same,IFN-α,"Table 9, donor 28090",62 pg/mL
same,IFN-γ,"Table 9, donor 28090",255 pg/mL
same,IFN-α,"Table 9, donor 28098",105 pg/mL
same,IFN-γ,"Table 9, donor 28098",745 pg/mL
same,IFN-α,"Table 9, donor 28099",105 pg/mL
same,IFN-γ,"Table 9, donor 28099",125 pg/mL
same,IFN-α mean,"Table 9, mean of donors",68 pg/mL
same,IFN-γ mean,"Table 9, mean of donors",302 pg/mL
same,IFN-α,"Table 10, donor 28042",27 pg/mL
same,IFN-γ,"Table 10, donor 28042",495 pg/mL
same,IFN-α,"Table 10, donor 28043",85 pg/mL
same,IFN-γ,"Table 10, donor 28043",1189 pg/mL
same,IFN-α,"Table 10, donor 28044",36 pg/mL
same,IFN-γ,"Table 10, donor 28044",925 pg/mL
same,IFN-α,"Table 10, donor 28045",21 pg/mL
same,IFN-γ,"Table 10, donor 28045",212 pg/mL
same,IFN-α mean,"Table 10, mean of donors",42 pg/mL
same,IFN-γ mean,"Table 10, mean of donors",705 pg/mL
same,IFN-α,"Table 11, donor 28042",9 pg/mL
same,IFN-γ,"Table 11, donor 28042",324 pg/mL
same,IFN-α,"Table 11, donor 28043",34 pg/mL
same,IFN-γ,"Table 11, donor 28043",1036 pg/mL
same,IFN-α,"Table 11, donor 28044",22 pg/mL
same,IFN-γ,"Table 11, donor 28044",529 pg/mL
same,IFN-γ,"Table 11, donor 28045",653 pg/mL
same,IFN-α mean,"Table 11, mean of donors",43 pg/mL
same,IFN-γ mean,"Table 11, mean of donors",636 pg/mL
same,IFN-α,"Table 13, donor 28156",52 pg/mL
same,IFN-γ,"Table 13, donor 28156",1132 pg/mL
same,IFN-α,"Table 13, donor 28157",484 pg/mL
same,IFN-γ,"Table 13, donor 28157",872 pg/mL
